Source: patent US10144734B2, “Substituted pyrazolo[1,5-A]pyridine compounds as RET kinase inhibitors” (Array BioPharma, Inc., priority 2016, dated 2018)

Biological target: HEK-293 cells expressing a Kif5b-RET fusion protein (Homo sapiens, UniProt P07949)
Test: cell-based

Sequence of HEK-293 cells expressing a Kif5b-RET fusion protein (P07949 29-1114 limits assumed): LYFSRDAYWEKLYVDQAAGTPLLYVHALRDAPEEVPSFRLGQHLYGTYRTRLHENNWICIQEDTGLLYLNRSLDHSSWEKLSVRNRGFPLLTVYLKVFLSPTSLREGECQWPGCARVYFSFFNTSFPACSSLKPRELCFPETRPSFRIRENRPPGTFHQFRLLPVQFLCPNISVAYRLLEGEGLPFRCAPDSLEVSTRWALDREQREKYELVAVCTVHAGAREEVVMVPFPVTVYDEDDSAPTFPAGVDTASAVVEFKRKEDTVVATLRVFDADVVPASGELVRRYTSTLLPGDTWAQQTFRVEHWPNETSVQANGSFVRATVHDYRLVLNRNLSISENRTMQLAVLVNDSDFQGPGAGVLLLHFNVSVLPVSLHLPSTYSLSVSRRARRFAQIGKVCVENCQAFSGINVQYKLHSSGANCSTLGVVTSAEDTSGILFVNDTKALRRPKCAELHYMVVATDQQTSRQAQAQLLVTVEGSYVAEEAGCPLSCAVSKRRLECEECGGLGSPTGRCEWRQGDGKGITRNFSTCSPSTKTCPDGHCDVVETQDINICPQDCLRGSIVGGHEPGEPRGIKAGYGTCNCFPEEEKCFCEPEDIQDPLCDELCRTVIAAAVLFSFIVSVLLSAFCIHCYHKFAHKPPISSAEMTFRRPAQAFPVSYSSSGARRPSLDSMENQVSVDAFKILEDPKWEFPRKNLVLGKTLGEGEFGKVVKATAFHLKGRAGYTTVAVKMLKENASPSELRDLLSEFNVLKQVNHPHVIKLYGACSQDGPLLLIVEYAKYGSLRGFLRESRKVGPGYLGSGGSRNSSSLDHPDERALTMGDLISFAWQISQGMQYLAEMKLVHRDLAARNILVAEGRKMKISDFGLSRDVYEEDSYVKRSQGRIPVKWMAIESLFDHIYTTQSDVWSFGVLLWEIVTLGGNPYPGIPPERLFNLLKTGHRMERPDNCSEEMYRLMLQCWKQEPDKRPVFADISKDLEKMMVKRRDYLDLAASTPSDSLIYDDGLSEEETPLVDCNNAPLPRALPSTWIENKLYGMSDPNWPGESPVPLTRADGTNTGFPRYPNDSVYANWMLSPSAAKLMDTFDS

SMILES: CCOc1cc(-c2ccc(N3C[C@H]4C[C@@H](C3)[C@H]4Nc3nc(C)ccc3F)nc2)c2c(C#N)cnn2c1 [Example 377, 6-ethoxy-4-(6-((1R,5 S,6r)-6-((3-fluoro-6-methylpyridin-2-yl)amino)-3-azabicyclo[3.1.1]heptan-3-yl)pyridin-3-yl)pyrazolo[1,5-a]pyridine-3-carbonitrile]
- IC50: 39.4 nM
